Tests used:
[1] = system: Tregs in KPC-luc tumors; test: Targeting of Tregs in KPC-luc PDAC by intravenously injected FAM-iRGD; assay type: in vivo, mice
Procedure: FIG. 2H is an image showing that intravenously injected FAM-iRGD (green) targets CD4^+ (magenta) Foxp3^+ (red) Tregs in KPC-luc PDAC (white arrowheads). Some iRGD-targeted Foxp3^+ cells were CD4^neg (black arrowheads). Blue=DAPI. Scale bar, 50 μm.
Based on the finding that Tregs in PDAC, but not those in the spleen expressed αv integrins and NPR-1 (the receptors of iRGD), studies were performed to determine whether iRGD selectively targets PDAC-infiltrating Tregs. Intravenously injected FAM-iRGD (green) targets CD4^+ (magenta) Foxp3^+ (red) Tregs in KPC-luc PDAC (See FIG. 2H, white arrowheads). Some iRGD-targeted Foxp3^+ cells were CD4^neg (black arrowheads). Blue, DAPI; scale bar, 50 μm.

[2] = system: de novo pancreatic ductal adenocarcinoma (PDAC); test: Survival of transgenic KPC mice bearing de novo PDAC under long-term treatment; assay type: in vivo
Procedure: FIG. 1A is a graph showing the percent survival of transgenic Kras-LSL^[…], p53-LSL^172H, Pdx-1-cre (KPC) mice bearing de novo pancreatic ductal adenocarcinoma (PDAC) treated with gemcitabine (GEM).
FIG. 1 presents data showing that iRGD therapy increases CD8^+ T cells in transgenic PDAC mice. […] We randomized mice to therapy with intraperitoneal (IP) gemcitabine alone (100 mg/kg/injection), intravenous (IV) iRGD alone (100 μg/injection) or gemcitabine co-administered with iRGD. Mice were followed with high resolution ultrasound and manual palpation until at least one tumor nodule of 4-5 mm became both palpable and visible on consecutive ultrasound exams. At this point, the mice were randomized to one of the three treatment arms. Treatment was given every 4 days until the animals were sacrificed for having signs of distress. […] Of note, while there was a difference in median survival favoring the combination (71 days versus 84 days), there was a more striking difference in the tail of the survival curve such that survival at 180 days was 0% for gemcitabine alone versus 40% in the iRGD+gemcitabine group.

## FAM-iRGD: fluorescein (FAM)-labeled iRGD
[1]
  targeting of CD4+ Foxp3+ Tregs in KPC-luc PDAC: targets

## Nc1ccn([C@@H]2O[C@H](CO)[C@@H](O)C2(F)F)c(=O)n1 [gemcitabine]
[2]; 180 days
  survival at 180 days: 0%
[2]; treatment every 4 days
  median survival: 71 days

Source: patent US20240000883A1, “METHOD OF SENSITIZING CANCERS TO IMMUNOTHERAPY USING IMMUNOMODULATORY AGENTS” (The Trustees of Columbia University in the City of New York, priority 2020, published 2024)
